Source: US20260217729A1, “HALOGEN-S[…] AMIDE DERIVATIVE, PREPARATION METHOD THEREFOR, AND USE THEREOF” (HANGZHOU ADCORIS BIOPHARMA CO., LTD, priority 2023, published 2026)
Where two headings read alike, the source gives them in different places.

Assays:
Type in all cases: cell-based
[1] = tested on: human lung cancer cells NCI-H1975; experiment: Tumor cell growth inhibitory activity (CCK-8), NCI-H1975; conditions: 72 h incubation, read-out: IC50 for inhibiting the growth of tumor cells, NCI-H1975
Procedure: (§1) Human esophageal cancer cells OE33, human breast cancer cells MDA-MB-231, human gastric cancer cells NCI-N87, human lung cancer cells NCI-H1975, human esophageal cancer cells TE12, human breast cancer cells SK-BR-3, etc., were cultured in RPMI1640 (Cellmax) supplemented with 10% fetal bovine serum (Cellmax). Tumor cells in the exponential growth phase were diluted to a concentration of 1×10^5 cells/mL with culture medium and added to 96-well cell culture plates at 100 μL per well, then returned and incubated overnight in a 37° C. incubator with 5% CO2. On the following day, the compounds were diluted to concentrations of 10000 nM, 2000 nM, 400 nM, 80 nM, 16 nM, 3.2 nM, 0.64 nM, and 0.13 nM with culture medium, and the diluted compounds were added to the 96-well cell culture plates at 2 μL per well, with three replicate wells for each concentration. Negative control and blank control groups without addition of compounds were added with 2 μL of the dilution liquid per well. After the addition of the compounds, the plates were returned to the 37° C. incubator with 5% CO2 to continue the incubation for 72 h. After the incubation, the cell culture plates were removed, and the culture medium in the plates was aspirated using a pipette. Then, 100 μL of culture medium containing 10% CCK-8 was added to each well, and the plates were incubated at 37° C. for 3 h. After the incubation, the plates were removed, kept in the dark, and placed in an ELISA plate. Absorbance was measured at 630 nm as the reference wavelength and 450 nm as the test wavelength. Based on the absorbance values, the IC50 values (Table 1) were calculated using the four-parameter logistic regression method in GraphPad.

[2] = tested on: human gastric cancer cells NCI-N87; experiment: Tumor cell growth inhibitory activity (CCK-8), NCI-N87; conditions: 72 h incubation, read-out: IC50 for inhibiting the growth of tumor cells, NCI-N87
Procedure: as §1

[3] = tested on: human esophageal cancer cells TE12; experiment: Tumor cell growth inhibitory activity (CCK-8), TE12; conditions: 72 h incubation, read-out: IC50 for inhibiting the growth of tumor cells, TE12
Procedure: as §1

[4] = tested on: human breast cancer cells SK-BR-3; experiment: Tumor cell growth inhibitory activity (CCK-8), SK-BR-3; conditions: SK-BR-3 cells, 72 h incubation, read-out: IC50 for inhibiting the growth of tumor cells, SK-BR-3
Procedure: as §1

[5] = tested on: Human esophageal cancer cells OE33; experiment: Tumor cell growth inhibitory activity (CCK-8), OE33; conditions: 72 h incubation, read-out: IC50 for inhibiting the growth of tumor cells, OE33
Procedure: as §1

[6] = tested on: human breast cancer cells MDA-MB-231; experiment: Tumor cell growth inhibitory activity (CCK-8), MDA-MB-231; conditions: MDA-MB-231 cells, 72 h incubation, read-out: IC50 for inhibiting the growth of tumor cells, MDA-MB-231
Procedure: as §1

SMILES | IC50 [1] [nM] | IC50 [2] [nM] | IC50 [3] [nM] | IC50 [4] [nM] | IC50 [5] [nM] | IC50 [6] [nM] | IC50 ([1]; Homo sapiens) [nM] | IC50 ([2]; Homo sapiens) [nM] | IC50 ([3]; Homo sapiens) [nM] | IC50 ([4]; Homo sapiens) [nM] | IC50 ([5]; Homo sapiens) [nM] | IC50 ([6]; Homo sapiens) [nM]
CC[C@@]1(O)C(=O)OCc2c1cc1n(c2=O)Cc2c-1nc1cc(F)c(C)c3c1c2[C@@H](NC(=O)C(F)C(N)=O)CC3 (stereo partly drawn) [Compound 1, N-(2′-fluoro-3′-amino-3′-oxo-propanoyl) exatecan] | 598 | 12.1 | 341 | 18 | 37.8 | > 1000 | – | – | – | – | – | –
CC[C@@]1(O)C(=O)OCc2c1cc1n(c2=O)Cc2c-1nc1cc(F)c(C)c3c1c2[C@@H](NC(=O)CNCC(F)(F)F)CC3 [Compound 2, N—(N-(2′-trifluoroethyl)aminoacetyl)exatecan] | 47.3 | 0.443 | 12.7 | 1 | 1.09 | 238 | – | – | – | – | – | –
CC[C@@]1(O)C(=O)OCc2c1cc1n(c2=O)Cc2c-1nc1cc(F)c(C)c3c1c2[C@@H](NC(=O)C(N)C(F)(F)F)CC3 (stereo partly drawn) [Compound 3, 2′-amino-3′,3′,3′-trifluoropropanoyl exatecan] | – | – | – | – | – | – | 56.2 | 1.74 | 21.1 | 3.01 | 5.61 | 262
CC[C@@]1(O)C(=O)OCc2c1cc1n(c2=O)Cc2c-1nc1cc(F)c(C)c3c1c2[C@@H](NC(=O)[C@@H]1CC(F)(F)CN1)CC3 [Compound 4, 4′,4′-difluoroprolyl exatecan] | – | – | – | – | – | – | 40.6 | 0.101 | 11.2 | 0.35 | 0.755 | 200
CC[C@@]1(O)C(=O)OCc2c1cc1n(c2=O)Cc2c-1nc1cc(F)c(C)c3c1c2[C@@H](NC(=O)C(F)F)CC3 [Compound 5, 2′,2′-difluoroacetyl exatecan] | – | – | – | – | – | – | 13.7 | 0.873 | 18.5 | 2.06 | 4.34 | 403
CC[C@@]1(O)C(=O)OCc2c1cc1n(c2=O)Cc2c-1nc1cc(F)c(C)c3c1c2[C@H](NC(=O)C(C)(F)F)CC3 [Compound 6, 2′,2′-difluoropropionyl exatecan] | – | – | – | – | – | – | 38.5 | 0.165 | 7.61 | 0.32 | 0.615 | 143
CC[C@@]1(O)C(=O)OCc2c1cc1n(c2=O)Cc2c-1nc1cc(F)c(C)c3c1c2[C@@H](NC(=O)CO)CC3 [Dxd, reference compound] | – | – | – | – | – | – | 73.6 | 1.35 | 21.5 | 4.46 | 6.55 | 207
